One block for each molecule: values may come before it.
Key:
[1] = test system: Rat; test: concentration in plasma after dosing; conditions: 5 h; dosed: Wyeth-14643; 1.0 mg/kg; oral; Male; Sprague-Dawley
[2] = test system: Rat; test: concentration in plasma after dosing; conditions: 1 h; dosed: Wyeth-14643; 1.0 mg/kg; oral; Male; Sprague-Dawley
[3] = test system: Rat; test: concentration in plasma after dosing; conditions: dosed: Wyeth-14643, 2.0 mg/kg, oral, Male, Sprague-Dawley
[4] = test system: Rat; test: concentration in plasma after dosing; conditions: 0.25 h; dosed: Wyeth-14643; 5.0 mg/kg; oral; Male; Sprague-Dawley
[5] = test system: Rat; test: concentration in heart after dosing; conditions: 2 h; dosed: Bis 2-Chloroethoxy Methane; 20 mg/kg; iv; Male; F344
[6] = test system: Rat; test: concentration in plasma after dosing; conditions: 2 h; dosed: Bis 2-Chloroethoxy Methane; 20 mg/kg; iv; Male; F344
[7] = test system: Rat; test: concentration in plasma after dosing; conditions: 5 h; dosed: Bis 2-Chloroethoxy Methane; 20 mg/kg; iv; Male; F344
[8] = test system: Rat; test: concentration in heart after dosing; conditions: 3 h; dosed: Bis 2-Chloroethoxy Methane; 20 mg/kg; iv; Female; F344
[9] = test system: Rat; test: concentration in plasma after dosing; conditions: 20 min; dosed: Bis 2-Chloroethoxy Methane; 20 mg/kg; iv; Female; F344
[10] = test system: Rat; test: concentration in heart after dosing; conditions: 40 min; dosed: Bis 2-Chloroethoxy Methane; 20 mg/kg; iv; Male; F344
[11] = test system: Rat; test: concentration in thymus after dosing; conditions: 10 min; dosed: Bis 2-Chloroethoxy Methane; 20 mg/kg; iv; Male; F344
[12] = test system: Rat; test: concentration in heart after dosing; conditions: 1 h; dosed: Bis 2-Chloroethoxy Methane; 20 mg/kg; iv; Male; F344
[13] = test system: Rat; test: concentration in heart after dosing; conditions: 2 h; dosed: Bis 2-Chloroethoxy Methane; 20 mg/kg; iv; Male; F344; remark: listed apart in the source
[14] = test system: Rat; test: concentration in thymus after dosing; conditions: 4 h; dosed: Bis 2-Chloroethoxy Methane; 20 mg/kg; iv; Male; F344
[15] = test system: Rat; test: concentration in liver after dosing; conditions: 0.5 h; dosed: Fluorotelomer alcohol 8+2; 24 mg/kg; oral; Male; Harlan Sprague Dawley
[16] = test system: Rat; test: concentration in plasma after dosing; conditions: dosed: Fluorotelomer alcohol 8+2, 40 mg/kg, iv, Female, Harlan Sprague-Dawley
[17] = test system: Rat; test: concentration in plasma after dosing; conditions: 1 h; dosed: Di-n-butyl phthalate; 50 mg/kg; oral; Male; Sprague-Dawley
[18] = test system: Rat; test: concentration in plasma after dosing; conditions: 6 h; dosed: Di-n-butyl phthalate; 50 mg/kg; oral; Male; Sprague-Dawley
[19] = test system: Rat; test: concentration in plasma after dosing; conditions: 24 h; dosed: Di-n-butyl phthalate; 100 mg/kg; oral; Male; Sprague-Dawley
[20] = test system: Rat; test: concentration in plasma after dosing; conditions: 5 min; dosed: Di-n-butyl phthalate; 20 mg/kg; iv; Male; Sprague-Dawley
[21] = test system: Rat; test: concentration in plasma after dosing; conditions: 6 h; dosed: Di-n-butyl phthalate; 100 mg/kg; oral; Male; Sprague-Dawley
[22] = test system: Rat; test: concentration in plasma after dosing; conditions: 2 h; dosed: Di-n-butyl phthalate; 100 mg/kg; oral; Male; Sprague-Dawley
[23] = test system: Rat; test: concentration in plasma after dosing; conditions: dosed: Perfluorodecanoic acid, 2 mg/kg, iv, Male, F344
[24] = test system: Rat; test: concentration in plasma after dosing; conditions: dosed: Perfluorodecanoic acid, 2 mg/kg, oral, Male, Harlan Sprague Dawley
[25] = test system: Rat; test: concentration in plasma after dosing; conditions: 22 h; dosed: Primidone; 30 mg/kg; oral; Female; F344
[26] = test system: Rat; test: concentration in thymus after dosing; conditions: 20 min; dosed: Thiodiglycolic Acid; 20 mg/kg; iv; Female; Harlan Sprague Dawley
[27] = test system: Rat; test: concentration in heart after dosing; conditions: 4 h; dosed: Thiodiglycolic Acid; 20 mg/kg; iv; Female; Harlan Sprague Dawley
[28] = test system: Rat; test: concentration in plasma after dosing; conditions: 1 h; dosed: Thiodiglycolic Acid; 20 mg/kg; iv; Female; Harlan Sprague Dawley
[29] = test system: Rat; test: concentration in thymus after dosing; conditions: 4 h; dosed: Thiodiglycolic Acid; 20 mg/kg; iv; Male; Harlan Sprague Dawley
[30] = test system: Rat; test: concentration in liver after dosing; conditions: 5.333 h; dosed: Thiodiglycolic Acid; 20 mg/kg; iv; Female; Harlan Sprague Dawley
[31] = test system: Rat; test: concentration in heart after dosing; conditions: 6.667 h; dosed: Thiodiglycolic Acid; 20 mg/kg; iv; Female; Harlan Sprague Dawley
[32] = test system: Rat; test: concentration in liver after dosing; conditions: 10 h; dosed: Thiodiglycolic Acid; 20 mg/kg; iv; Female; Harlan Sprague Dawley
[33] = test system: Rat; test: concentration in thymus after dosing; conditions: 2 h; dosed: Thiodiglycolic Acid; 20 mg/kg; iv; Female; Harlan Sprague Dawley
[34] = test system: Rat; test: concentration in plasma after dosing; conditions: 10 min; dosed: dichloroacetic acid; 10 mg/kg; iv; Male; F344
[35] = test system: Rat; test: concentration in plasma after dosing; conditions: dosed: dichloroacetic acid, 40 mg/kg, oral, Female, Harlan Sprague Dawley
[36] = test system: Rat; test: concentration in plasma after dosing; conditions: dosed: dichloroacetic acid, 100 mg/kg, oral, Male, F344

concentration in plasma [1]: 0.118 µg/mL
concentration in plasma [2]: 0.828 µg/mL
concentration in plasma ([3]; 1 h): 0.513 µg/mL
concentration in plasma ([3]; 6 h): 0.169 µg/mL
concentration in plasma [4]: 2.45 µg/mL
Compound: Cc1cccc(Nc2cc(Cl)nc(SCC(=O)O)n2)c1C

Compound: ClCCOCOCCCl [Bis 2-Chloroethoxy Methane]
concentration in heart [5]: 119 ng/g
concentration in plasma [6]: 282 ng/mL
concentration in plasma [7]: 31 ng/mL
concentration in heart [8]: 158 ng/g
concentration in plasma [9]: 4820 ng/mL
concentration in heart [10]: 6920 ng/g
concentration in thymus [11]: 45200 ng/g
concentration in heart [12]: 2450 ng/g
concentration in heart [13]: 450 ng/g
concentration in thymus [14]: 72.9 ng/g

concentration in liver [15]: 7210 ng/g
concentration in plasma ([16]; 0.75 h): 2220 ng/mL
concentration in plasma ([16]; 12 h): 28.7 ng/mL
Compound: OCCC(F)(F)C(F)(F)C(F)(F)C(F)(F)C(F)(F)C(F)(F)C(F)(F)C(F)(F)F [Fluorotelomer alcohol 8+2]

Compound: CCCCOC(=O)c1ccccc1C(=O)O [Mono-n-butyl phthalate]
concentration in plasma [17]: 3.07 µg/mL
concentration in plasma [18]: 1.89 µg/mL
concentration in plasma [19]: 2.77 µg/mL
concentration in plasma [20]: 38.5 µg/mL
concentration in plasma [21]: 4.95 µg/mL
concentration in plasma [22]: 1.29 µg/mL

Compound: O=C(O)C(F)(F)C(F)(F)C(F)(F)C(F)(F)C(F)(F)C(F)(F)C(F)(F)C(F)(F)C(F)(F)F [Perfluorodecanoic acid]
concentration in plasma ([23]; 24 h): 5580 ng/mL
concentration in plasma ([23]; 1848 h): 884 ng/mL
concentration in plasma ([24]; 1 h): 4920 ng/mL
concentration in plasma ([24]; 192 h): 5100 ng/mL
concentration in plasma ([24]; 2520 h): 882 ng/mL

Compound: CCC1(c2ccccc2)C(=O)NC(=O)NC1=O [Phenobarbital]
concentration in plasma [25]: 0.72 µg/mL

Compound: O=C(O)CSCC(=O)O [Thiodiglycolic Acid]
concentration in thymus [26]: 5770 ng/g
concentration in heart [27]: 620 ng/g
concentration in plasma [28]: 2900 ng/mL
concentration in thymus [29]: 904 ng/g
concentration in liver [30]: 47900 ng/g
concentration in heart [31]: 262 ng/g
concentration in liver [32]: 1650 ng/g
concentration in thymus [33]: 1910 ng/g

Compound: O=C(O)C(Cl)Cl [dichloroacetic acid]
concentration in plasma [34]: 8.11 µg/mL
concentration in plasma ([35]; 10 min): 6.31 µg/mL
concentration in plasma ([35]; 1.5 h): 2.78 µg/mL
concentration in plasma ([36]; 10 min): 8.23 µg/mL
concentration in plasma ([36]; 4 h): 25.9 µg/mL

From EPA's CvTdb concentration-time database
